Reference: patent US10981932B2, “Macrocyclic indole derivatives” (Bayer Aktiengesellschaft, priority 2016, dated 2021)
Where a name gives a salt, the structure may show the parent alone. Read-outs that look alike come from different tables or passages of the source.

Assays:
[1] = tested on: SUDHL10; assay: Anti-proliferative effect (CellTiter-Glo, 72 h), SUDHL10; type: cell-based; conditions: SUDHL10 cells, antiproliferation, 72 h incubation, median, read-out: Antiproli SUDHL10 [M] (median)
Method in brief: (§1)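 CellTiter-Glo luminescence readout of viability, taken on a time-zero plate at day 0 and on treated plates after 72 h incubation at 37 °C in a humidified incubator. Reagent incubation 10 min before reading.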

[2] = target: T1, BCL-2 (Homo sapiens, UniProt P10415); assay: Protein-protein interaction assay BCL-2/Bad BH3 peptide (BCL-2 assay), TR-FRET; type: binding; conditions: His-BCL-2 / Bad BH3-derived peptide, median
T1 construct: BCL-2 (amino acids 1-211, C-terminal fused to a hexahistidine (6×His) tag); purchased BPS Bioscience (San Diego, Calif., USA); host or cells: E. coli
T1 sequence (P10415 1-211): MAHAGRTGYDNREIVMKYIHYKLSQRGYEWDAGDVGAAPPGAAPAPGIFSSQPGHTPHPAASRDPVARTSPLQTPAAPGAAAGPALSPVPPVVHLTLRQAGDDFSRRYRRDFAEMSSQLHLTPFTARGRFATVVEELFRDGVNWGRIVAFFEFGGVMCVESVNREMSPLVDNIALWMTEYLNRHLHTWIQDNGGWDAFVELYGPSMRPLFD
Method: Protein-Protein Interaction Assay: BCL-2/Bad BH3 Peptide (BCL-2 Assay)
The dose-dependent inhibition by the compounds described in this invention of the interaction between BCL-2 and the BH3 domain of Bad (both human) was determined using a steady state binding competition assay with time-resolved fluorescence energy transfer (TR-FRET) readout. For that purpose BCL-2 (amino acids 1-211, C-terminal fused to a hexahistidine (6×His) tag and a synthetic Bad BH3-derived peptide of sequence Biotin-PEG2-PEG2-NLWAAQRYGRELRR-Nle-SDEFVDSFKK-amide (SEQ ID NO: 2) served as protein receptor and tracer ligand respectively. The recombinant BCL-2 protein (expressed in E. coli) was purchased from BPS Bioscience (San Diego, Calif., USA). The Bad BH3-derived peptide can be obtained from e.g. Biosyntan (Berlin, Germany).
In the assay 11 different concentrations of each compound (0.1 nM, 0.33 nM, 1.1 nM, 3.8 nM. 13 nM, 44 nM, 0.15 μM, 0.51 μM, 1.7 μM, 5.9 μM and 20 μM) were typically measured as duplicates in the same microtiter plate. For that, 100-fold concentrated DMSO solutions were prepared by serial dilutions (1:3.4) of a 2 mM stock solution in a clear, 384-well microtiter plate (Greiner Bio-One, Frickenhausen, Germany). From there, 50 nl were transferred in a dark test plate (Greiner Bio-One. Frickenhausen, Germany). The assay was initiated by addition of 2 μl of a 2,5-fold concentrated His-BCL-2 solution (usually for a 1 nM end concentration in 5 μl reaction volume) in aqueous assay buffer [50 mM Tris/HCl pH 7, 100 mM sodium chloride (NaCl), 50 mM potassium fluoride (KF), 0.005% Tween-20, 2 mM DTT, 0.1% bovine gamma globulin (BGG)] to the compounds in the assay plate. This was followed by a 10-minute incubation step at 22° C. for pre-equilibration of the putative complex between His-BCL-2 and the compounds.
The mixture was incubated in the dark for one hour at 22° C. and then overnight at 4° C. The formation of BCL-2/Bad complexes was determined by measuring the resonance energy transfer of the anti-His-Eu-cryptate antibody to the streptavidin-XL665 present in the reaction. For that purpose, the fluorescence emission at 620 nm and 665 nm after excitation at 330-350 nm was measured in a TR-FRET measuring instrument, for instance a Rubystar or a Pherastar (both from BMG Lab Technologies. Offenburg, Germany) or a Viewlux (Perkin-Elmer). The ratio of the emission at 665 nm and at 622 nm was used as indicator of the amount of BCL-2/Bad complexes present.
The resulting data (ratio) were normalized, taking 0% inhibition as the mean value of control measurements (usually 32 data points) where all reagents were included. In this case 50 nl DMSO were used instead of compounds. A 100% inhibition corresponded to the mean value of control measurements (usually 32 data points) where all reagents except BCL-2 were included. IC50 values were determined by regression analysis based on a 4 parameter equation (minimum, maximum, IC50, Hill; Y=Max+(Min−Max)/(1+(X/IC50)^Hill) using the Screener Software (Genedata).

[3] = tested on: OPM2; assay: Anti-proliferative effect (CellTiter-Glo, 72 h), OPM2; type: cell-based; conditions: OPM2 cells, median, read-out: IC50 antiproliferation assay OPM2 [M] (median)
Method in brief: as §1

[4] = tested on: MV-4-11; assay: Anti-proliferative effect (CellTiter-Glo, 72 h), MV-4-11; type: cell-based; conditions: MV-4-11 cells, median, read-out: IC50 antiproliferation assay MV-4-11 [M] (median)
Method in brief: as §1

IC50 [1] [M] | IC50 [2] [µM] | IC50 ([4]; Homo sapiens, MV4-11, 72 h) [M] | IC50 ([1]; Homo sapiens, SU-DHL10, 72 h) [M] | Compound | IC50 [3] [M] | IC50 ([3]; Homo sapiens, OPM-2, 72 h) [M] | IC50 [4] [M]
4.55e-06 | > 20 | 2.61e-06 | – | Cc1nn(C)c2c1-c1cccc3c(CCCOc4cccc5ccccc45)c(C(=O)O)n(c13)CCCN(C)C2 (single isomer, unassigned; enantiomer 1) [Example 1-31, 7,9,11-trimethyl-1-[3-(naphthalen-1-yloxy)propyl]-4,5,6,7,8,9-hexahydropyrazolo[3′,4′:7,8][1,5]diazecino[9,10,1-hi]indole-2-carboxylic Acid-N-ethylethanamine Salt (Enantiomer 1)] | 1.05e-05 | – | –
– | > 20 | 6.59e-06 | 8.34e-06 | CN1CCCn2c(C(=O)O)c(CCCOc3cccc4ccccc34)c3cccc(c32)-c2c(CN3CCOCC3)nn(C)c2C1 (single isomer, unassigned; enantiomer 1) [Example 1-43, (+)-7,9-dimethyl-11-(morpholin-4-ylmethyl)-1-[3-(naphthalen-1-yloxy)propyl]-4,5,6,7,8,9-hexahydropyrazolo[3′,4′:7,8][1,5]diazecino[9,10,1-hi]indole-2-carboxylic Acid (Enantiomer 1)] | – | 1.81e-05 | –
8.61e-07 | 2.34 | 7.2e-07 | – | CN1CCCn2c(C(=O)O)c(CCCOc3cccc4ccccc34)c3cccc(c32)-c2c(COc3ccc(N4CCN(S(C)(=O)=O)CC4)cc3)nn(C)c2C1 (single isomer, unassigned; enantiomer 1) [Example 1-46, (+)-7,9-dimethyl-11-({4-[4-(methylsulfonyl)piperazin-1-yl]phenoxy}methyl)-1-[3-(naphthalen-1-yloxy)propyl]-4,5,6,7,8,9-hexahydropyrazolo[3′,4′:7,8][1,5]diazecino[9,10,1-hi]indole-2-carboxylic Acid (Enantiomer 1)] | 1.52e-06 | – | –
– | > 20 | – | 1.21e-05 | COCCn1nc2c(c1CN1CCOCC1)-c1cccc3c(CCCOc4cccc5ccccc45)c(C(=O)O)n(c13)CCCN(C)C2 (single isomer, unassigned; enantiomer 1) [Example 057, 10-(2-methoxyethyl)-7-methyl-11-(morpholin-4-ylmethyl)-1-[3-(naphthalen-1-yloxy)propyl]-4,5,6,7,8,10-hexahydropyrazolo[3′,4′:7,8][1,5]diazecino[9,10,1-hi]indole-2-carboxylic Acid (Enantiomer 1)] | – | > 3.3e-05 | –
– | > 20 | – | 1.16e-05 | Cc1c2c(nn1CCN1CCOCC1)CN(C)CCCn1c(C(=O)O)c(CCCOc3cccc4ccccc34)c3cccc-2c31 (single isomer, unassigned; enantiomer 1) [Example 060, 7,11-dimethyl-10-[2-(morpholin-4-yl)ethyl]-1-[3-(naphthalen-1-yloxy)propyl]-4,5,6,7,8,10-hexahydropyrazolo[3′,4′:7,8][1,5]diazecino[9,10,1-hi]indole-2-carboxylic Acid (Enantiomer 1)] | – | 1.27e-05 | –
– | > 20 | 4.44e-06 | – | COCc1nn(C)c2c1-c1cccc3c(CCCOc4cccc5ccccc45)c(C(=O)O)n(c13)CCCN(C)C2 (single isomer, unassigned; enantiomer 2) [Example 1-104, 11-(methoxymethyl)-7,9-dimethyl-1-[3-(1-naphthyloxy)propyl]-4,5,6,7,8,9-hexahydropyrazolo[3′,4′:7,8][1,5]diazecino[9,10,1-hi]indole-2-carboxylic Acid (Enantiomer 2)] | – | – | –
8.37e-06 | > 20 | 8.02e-06 | – | Cc1c2c(nn1CCN1CCOCC1)CN(C)CCCn1c(C(=O)O)c(CCCOc3cccc4ccccc34)c3cccc-2c31 (single isomer, unassigned; enantiomer 2) [Example 061, 7,11-dimethyl-10-[2-(morpholin-4-yl)ethyl]-1-[3-(naphthalen-1-yloxy)propyl]-4,5,6,7,8,10-hexahydropyrazolo[3′,4′:7,8][1,5]diazecino[9,10,1-hi]indole-2-carboxylic Acid (Enantiomer 2)] | 2.51e-05 | – | –

The next lines start with the compound.

Compound | IC50 [1] [M] | IC50 [2] [µM] | IC50 ([4]; Homo sapiens, MV4-11, 72 h) [M] | IC50 ([1]; Homo sapiens, SU-DHL10, 72 h) [M] | IC50 [3] [M] | IC50 ([3]; Homo sapiens, OPM-2, 72 h) [M] | IC50 [4] [M]
Cn1nc(COc2ccc(N3CCN(C(=O)C4CC4)CC3)cc2)c2c1COCCCCn1c(C(=O)O)c(CCCOc3cccc4ccccc34)c3cccc-2c31 (single isomer, unassigned; enantiomer 1) [Example 1-22, 3-({4-[4-(cyclopropylcarbonyl)piperazin-1-yl]phenoxy}methyl)-1-methyl-7-[3-(naphthalen-1-yloxy)propyl]-1,10,11,12,13,15-hexahydropyrazolo[4′,3′:9,10][1,6]oxazacycloundecino[8,7,6-hi]indole-8-carboxylic Acid (Enantiomer 1)] | 2.19e-06 | > 20 | – | – | 2.56e-06 | – | –
Cc1c2c(nn1C)COCCCCn1c(C(=O)O)c(CCCOc3cccc4ccccc34)c3cccc-2c31 (single isomer, unassigned; enantiomer 1) [Example 1-37, (+)-2,3-dimethyl-7-[3-(naphthalen-1-yloxy)propyl]-2,10,11,12,13,15-hexahydropyrazolo[4′,3′:9,10][1,6]oxazacycloundecino[8,7,6-hi]indole-8-carboxylic Acid (Enantiomer 1)] | 3e-06 | > 20 | 4.02e-06 | – | 6.53e-06 | – | –
Cc1nn(C)c2c1-c1cccc3c(CCCOc4cccc5cc(F)ccc45)c(C(=O)O)n(c13)CCCOC2 (single isomer, unassigned; enantiomer 1) [Example 047, 1-{3-[(6-fluoronaphthalen-1-yl)oxy]propyl}-9,11-dimethyl-5,6,8,9-tetrahydro-4H-pyrazolo[4′,3′:8,9][1,5]oxazecino[7,6,5-hi]indole-2-carboxylic acid-N-ethylethanamine Salt (Enantiomer 1)] | 3.61e-06 | > 20 | – | – | – | – | 5.38e-06
Cc1nn(C)c2c1-c1cccc3c(CCCOc4ccc(F)c5ccccc45)c(C(=O)O)n(c13)CCCCOC2 (single isomer, unassigned; enantiomer 2) [Example 023, 7-{3-[(4-fluoronaphthalen-1-yl)oxy]propyl}-1,3-dimethyl-1,10,11,12,13,15-hexahydropyrazolo[4′3′:9,10][1,6]oxazacycloundecino[8,7,6-hi]indole-8-carboxylic acid-N-ethylethanamine Salt (Enantiomer 2)] | 9.57e-06 | > 20 | 2.29e-06 | – | – | 6.79e-06 | –
Cc1ccc2c(CCCOc3cccc4ccccc34)c(C(=O)O)n3c2c1-c1c(nn(C)c1C)CN(C)CCC3 (single isomer, unassigned; enantiomer 2) [Example 074, 7,10,11,12-tetramethyl-1-[3-(naphthalen-1-yloxy)propyl]-4,5,6,7,8,10-hexahydropyrazolo[3′,4′:7,8][1,5]diazecino[9,10,1-hi]indole-2-carboxylic Acid (Enantiomer 2)] | 1.26e-05 | > 20 | 7.04e-06 | – | – | – | –
